Laboratory results: patent publication US7524860B2, “Antibacterial agents” (Pfizer Inc., priority 2004, dated 2009)
≈ marks a conversion by molar mass, not a printed value. Where two headings read alike, the source gives them in different places.

System: Neisseria gonorrhoeae, GC525 (NG-2888)
Test: in-vitro antibacterial activity, microbroth dilution MIC susceptibility testing
Type: cell-based
Parameters: unit: ug/mL
Conditions: microbroth dilution in gonococcal broth, 20-24 hours at 35 C, lowest concentration preventing visible growth
Experimental: The in-vitro antibacterial activity of selected compounds was determined against a stain of Neisseria gonorrhoeae, GC525 (NG-2888), which is described by Rouquette-Loughlin et al, in Journal of Bacteriology, February 2003, p. 1101-1106, at p. 1103. In general, minimum inhibitory concentration (MIC) susceptibility testing followed procedures recommended by the National Committee for Clinical Laboratory Standards (NCCLS^1-2) or followed the descriptions described below:
Neisseria gonorrhoeae strains were grown on Chocolate Agar II plates (BBL—Becton Dickinson Microbiology Systems, Cockeysville, Md.) and incubated at 35° C. in a humidified 5% CO2 incubator (Form a Scientific, Marietta Ohio). For microbroth dilution MIC testing, N. gonorrhoeae were tested in gonococcal broth (GCB):
Gram stains were also utilized. Permanent Stock Culture Collection
Bacterial stock cultures are stored as frozen suspensions at −70 C. N. gonorrhoeae cultures are suspended in inactivated Horse Serum (Colorado Serum Company, Denver, Colo.) containing 7.5% glucose prior to snap freezing in a dry ice/ethanol bath.
Preparation of Standardized Test Inocula and Plate Inoculation
Frozen stock cultures were used as the initial source of organisms for performing microbroth dilution MIC testing. Stock cultures were passed on their respective growth medium at least one growth cycle (18-24 hours) prior to their use. Bacterial culture suspensions were prepared directly from Chocolate Agar II plates into 10 mL cation-adjusted Mueller-Hinton Broth (CAMHB, BBL, # BB215069). Before use, cultures were adjusted to an optical density value of 1.6-2 on a Perkin-Elmer Lambda EZ150 Spectrophotometer (Wellesley, Mass.) set at a wavelength of 600 nm. Random cultures were plated for validation of actual colony counts. The adjusted cultures were diluted 400-fold (0.25 mL inoculum+100 mL GCB) into gonococcal broth producing a starting inoculum of approximately 5×10^5 cfu/mL. These cultures were inoculated into test plates (100 uL/well) using a Biomek® FX workstation (Beckman Coulter Inc., Fullerton, Calif.). The inoculated plates were placed in stacks of no more than 4 and covered with an empty plate. Plates were incubated for 20-24 hours at 35 C in a humidified CO2 incubator.
Test Compound (“Drug”) Preparation
Drug stock solutions (2 mg/mL in DMSO) were prepared on the day of testing. Drugs were weight corrected for assay content where necessary.
Drug Dilution Tray Preparation
Microbroth dilution stock plates were prepared in two dilution series, 64-0.06 ug drug/mL and 1-0.001 ug drug/mL. For the high concentration series, 200 uL of stock solution (2 mg/mL) was added to duplicate rows of a 96-well plate. This was used as the first well in the dilution series. Serial two-fold decremental dilutions were made using a BioMek FX robot (Beckman Coulter Inc., Fullerton, Calif.) with 10 of the remaining 11 wells, each of which contained 100 uL of the appropriate solvent/diluent. Row 12 contained solvent/diluent only and served as the control. For tube one of the low concentration series, 200 uL of a 31.25 ug/mL stock was added to duplicate rows of a 96-well plate. Serial two-fold dilutions were made as described above.
Daughter plates were spotted (3.2 uL/well) from the stock plates listed above using the BioMek FX robot and were inoculated with organism (100 uL/well) as described previously.
After incubation, the degree of growth in each well was read visually with the aid of a Test Reading Mirror (Dynatech Lab 220-16, Dynex Technologies, Chantilly, Va.). 96-well test plates are read in a darkened room with a single light shining from above. The MIC is the lowest concentration of drug that prevents macroscopically visible growth under the conditions of the test. […] If MIC values in duplicate tests differ by 1 well (two-fold), the […] value is reported. If duplicate tests vary by 2 dilutions (four-fold), the middle value is reported.

[1] = Neisseria gonorrhoeae, read-out: MIC

Row | Compound | MIC [1] [µg/mL] | MIC [µg/mL]
1 | CCNC(=O)Nc1nc2cc(-c3cccnc3)cc(C(=O)NC(C)C)n2n1 [Example 12, 2-(3-Ethyl-ureido)-7-pyridin-3-yl-[1,2,4]triazolo[1,5-a]pyridine-5-carboxylic acid isopropylamide] | 2 (≈ 5.44 µM) | 
2 | CCNC(=O)Nc1nc2cc(-c3ccc(F)nc3)cc(C(=O)NCC)n2n1 [Example 34, 2-(3-Ethyl-ureido)-7-(6-fluoro-pyridin-3-yl)-[1,2,4]triazolo[1,5-a]pyridine-5-carboxylic acid ethylamide] | 1 (≈ 2.69 µM) | 
3 | CCNC(=O)Nc1nc2cc(-c3cccnc3)cc(C(=O)C3CC3)n2n1 [Example 109, 1-(5-Cyclopropanecarbonyl-7-pyridin-3-yl-[1,2,4]triazolo[1,5-a]pyridine-2-yl)-3-ethyl-urea] | 2 (≈ 5.71 µM) | 
4 | CCNC(=O)Nc1nc2cc(-c3cccnc3)cc(C(=O)N(CC)CC)n2n1 [Example 14, 2-(3-Ethyl-ureido)-7-pyridin-3-yl-[1,2,4]triazolo[1,5-a]pyridine-5-carboxylic acid diethylamide] |  | 16 (≈ 41.9 µM)
5 | CCNC(=O)Nc1nc2cc(-c3cccnc3)cc(C(=O)N(C)C(C)c3ccccn3)n2n1 (centres unmarked) [Example 90, 2-(3-Ethyl-ureido)-7-pyridin-3-yl-[1,2,4]triazolo[1,5-a]pyridine-5-carboxylic acidmethyl-(1-pyridin-2-yl-ethyl)-amide] | > 64 | 
6 | CCNC(=O)Nc1nc2cc(-c3ccc(C(C)C)cc3)cc(C(=O)NCC)n2n1 [Example 61, 2-(3-Ethyl-ureido)-7-(4-isopropyl-phenyl)-[1,2,4]triazolo[1,5-a]pyridine-5-carboxylic acid ethylamide] | 2 (≈ 5.07 µM) | 
7 | CCNC(=O)Nc1nc2cc(-c3cccnc3)cc(C(=O)c3ccccc3)n2n1 [Example 111, 1-(5-Benzoyl-7-pyridin-3-yl-[1,2,4]triazolo[1,5-a]pyridine-2-yl)-3-ethyl-urea] | 8 (≈ 20.7 µM) | 
8 | CCNC(=O)Nc1nc2cc(-c3ccccc3C#N)cc(C(=O)NCC)n2n1 [Example 65, 7-(2-Cyano-phenyl)-2-(3-ethyl-ureido)-[1,2,4]triazolo[1,5-a]pyridine-5-carboxylic acid ethylamide] | 32 (≈ 84.8 µM) | 
9 | CCNC(=O)Nc1nc2cc(-c3cccnc3)cc(C(=O)N3CCC(N(CC)CC)C3)n2n1 (centres unmarked) [Example 49, 1-[5-(3-Diethylamino-pyrrolidine-1-carbonyl)-7-pyridin-3-yl-[1,2,4]triazolo[1,5-a]pyridin-2-yl]-3-ethyl-urea] | > 64 | 
10 | CCNC(=O)Nc1nc2cc(-c3ccccc3F)cc(C(=O)NCC)n2n1 [Example 72, 2-(3-Ethyl-ureido)-7-(2-fluoro-phenyl)-[1,2,4]triazolo[1,5-a]pyridine-5-carboxylic acid ethylamide] | 4 (≈ 10.8 µM) | 
11 | CCNC(=O)Nc1nc2cc(-c3cc(F)ccc3F)cc(C(=O)NCC)n2n1 [Example 66, 7-(2,5-Difluoro-phenyl)-2-(3-ethyl-ureido)-[1,2,4]triazolo[1,5-a]pyridine-5-carboxylic acid ethylamide] | 4 (≈ 10.3 µM) | 
12 | CCNC(=O)Nc1nc2cc(-c3cccnc3)cc(/C=N/O)n2n1 [Example 24, N-Ethyl-N′-{5-[(E)-(hydroxyimino)methyl]-7-pyridin-3-yl[1,2,4]triazolo[1,5-a]pyridin-2-yl}urea] | > 64 | 
13 | CCNC(=O)Nc1nc2cc(-c3cccnc3)cc(C(=O)N(C)Cc3cc(C)no3)n2n1 [Example 76, 2-(3-Ethyl-ureido)-7-pyridin-3-yl-[1,2,4]triazolo[1,5-a]pyridine-5-carboxylic acidmethyl-(3-methyl-isoxazol-5-yl-methyl)-amide] | 8 (≈ 18.4 µM) | 
14 | CCNC(=O)Nc1nc2cc(-c3cccnc3)cc(-c3ncccn3)n2n1 [Example 128, 1-Ethyl-3-(7-pyridin-3-yl-5-pyrimidin-2-yl-[1,2,4]triazolo[1,5-a]pyridin-2-yl)-urea] | > 64 | 
15 | CCNC(=O)Nc1nc2cc(-c3cccnc3)cc(C(=O)NCC)n2n1 [Example 8, 2-(3-Ethyl-ureido)-7-pyridin-3-yl-[1,2,4]triazolo[1,5-a]pyridine-5-carboxylic acid ethylamide] | 1 (≈ 2.83 µM) | 
16 | CCNC(=O)Nc1nc2cc(-c3ccc(F)cc3)cc(C(=O)NCC)n2n1 [Example 69, 2-(3-Ethyl-ureido)-7-(4-fluoro-phenyl)-[1,2,4]triazolo[1,5-a]pyridine-5-carboxylic acid ethylamide] | 8 (≈ 21.6 µM) | 
17 | CCNC(=O)Nc1nc2cc(-c3cccnc3)cc(C(=O)N(C)CCN(CC)CC)n2n1 [Example 36, 2-(3-Ethyl-ureido)-7-pyridin-3-yl-[1,2,4]triazolo[1,5-a]pyridine-5-carboxylic acid(2-diethylamino-ethyl)-methyl-amide] | > 64 | 
18 | N-Methyl-N′-[5-(3-methylpyridin-2-yl)-7-pyridin-3-yl[1,2,4]triazolo[1,5-a]pyridin-2-yl]urea [Example 145] |  | 16.0
19 | CCNC(=O)Nc1nc2cc(C3=CCOCC3)cc(C(=O)NCC)n2n1 [Example 33, 7-(3,6-Dihydro-2H-pyran-4-yl)-2-(3-ethyl-ureido)-[1,2,4]triazolo[1,5-a]pyridine-5-carboxylic acid ethyl amide] | > 64 | 
20 | CCOC(=O)c1cc(-c2cnc(N(C)C)nc2)cc2nc(NC(=O)NC(C)C)cn12 [Example 116, 7-(2-Dimethylamino-pyrimidin-5-yl)-2-(3-isopropyl-ureido)-imidazo[1,2-a]pyridine-5-carboxylic acid ethyl ester] |  | >64.0
21 | CCNC(=O)Nc1nc2cc(-c3cccnc3)cc(C(=O)NC3CCN(C(C)C)CC3)n2n1 [Example 41, 2-(3-Ethyl-ureido)-7-pyridin-3-yl-[1,2,4]triazolo[1,5-a]pyridine-5-carboxylic acid (1-isopropyl-piperidin-4-yl)-amide] | 16 (≈ 35.5 µM) | 
22 | CCNC(=O)Nc1nc2cc(-c3cccnc3)cc(C(=O)NCCN(C)C)n2n1 [Example 105, 2-(3-Ethyl-ureido)-7-pyridin-3-yl-[1,2,4]triazolo[1,5-a]pyridine-5-carboxylic acid (2-dimethylamino-ethyl)-amide] | 16 (≈ 40.4 µM) | 
23 | CCNC(=O)Nc1nc2cc(-c3cccc4ncccc34)cc(C(=O)NCC)n2n1 [Example 78, 2-(3-Ethyl-ureido)-7-quinolin-5-yl-[1,2,4]triazolo[1,5-a]pyridine-5-carboxylic acid ethylamide] | 8 (≈ 19.8 µM) | 
24 | CCNC(=O)Nc1nc2cc(-c3cccnc3)cc(C(=O)Cc3ccccc3)n2n1 [Example 110, 1-Ethyl-3-(5-phenylacetyl-7-pyridin-3-yl-[1,2,4]triazolo[1,5-a]pyridine-2-yl)-urea] | 4 (≈ 9.99 µM) | 
25 | 1-Ethyl-3-[7-pyridin-3-yl-5-(pyrrolidine-1-carbonyl)-imidazo[1,2-a]pyridin-2-yl]-urea [Example 120] |  | >64.0
26 | CCNC(=O)Nc1nc2cc(-c3cccnc3)cc(N(C)C3CCCCC3)n2n1 [Example 137, N-[5-[Cyclohexyl(methyl)amino]-7-pyridin-3-yl[1,2,4]triazolo[1,5-a]pyridin-2-yl]-N′-ethylurea] | 32 (≈ 81.3 µM) | 
27 | CCNC(=O)Nc1nc2cc(-c3cccnc3)cc(C#N)n2n1 [Example 27, N-(5-Cyano-7-pyridin-3-yl[1,2,4]triazolo[1,5-a]pyridin-2-yl)-N′-ethylurea] | 2 (≈ 6.51 µM) | 
28 | 2-(3-Ethyl-ureido)-7-(4-methoxy-phenyl)-imidazo[1,2-a]pyridine-5-carboxylic acid ethylamide [Example 119] |  | 64.0
29 | CCNC(=O)Nc1nc2cc(-c3cccnc3)cc(C(=O)N[C@H]3CC[C@H](O)CC3)n2n1 [Example 39, trans-2-(3-Ethyl-ureido)-7-pyridin-3-yl-[1,2,4]triazolo[1,5-a]pyridine-5-carboxylic acid (4-hydroxy-cyclohexyl)-amide] | 32 (≈ 75.6 µM) | 
